As a reminder, the MIC is the smallest concentration in the dilution series that meets the test's criterion for growth inhibition.

Converted amounts (≈) assume the structure as drawn. “Also recorded” adds a separate entry of the source. Square brackets hold non-standard residues; d marks the D form. Ends that are not written are not given here. Peptide text beside a SMILES is read from it.

For data set [1], the system named is Gram-negative bacteria. The data set is described as follows: Antibacterial activity (MIC), microtiter dilution. It is filed as cell-based. Particulars: for MIC: against Gram-negative bacteria. The procedure: MICs were determined by a standard microtiter dilution method in Mueller Hinton Broth (MHB). Serial dilutions of the 10× compound were added to the microtiter plates in a volume of 10 μL followed by 90 μL of bacteria for an inoculum of 5×10^5 colony-forming units (CFU)/mL. The plates were incubated at 37° C. for 24 h, and the MICs were determined as the lowest peptide concentration that inhibited growth. […]
Alternatively; minimal inhibitory concentrations were determined using a standard microtiter dilution method in a Mueller-Hinton (MH) medium. Briefly, cells were grown overnight at 37° C. in MH broth and diluted in the same medium. Serial dilutions of the peptides were added to the microtiter plates in a volume of 100 μl followed by 10 μl of bacteria for an initial cell concentration of 1×10^5 CFU/ml. Plates were incubated at 37° C. for 24 hours and MICs determined as the lowest peptide concentration that inhibited growth.

Data set [2] deals with human erythrocytes. The data set is described as follows: Hemolytic activity (MHC), Protocol A. It is filed as cell-based. The procedure:
Hemoglobin release was determined spectrophotometrically at 562 nm.
In some experiments the hemolytic titer was determined as the highest 2-fold dilution of peptide that caused hemoglobin release.

Data set [3] deals with Gram-positive bacteria. As to conditions: gram-positive bacteria, geometric mean MIC.
The nature of data set [4]: Peptide hydrophobicity by RP-HPLC retention. It is filed as physicochemical. Particulars: 80° C.; for change in hydrophobicity (RP-HPLC retention) relative to PVL: polar face substitution. The protocol: Peptide Synthesis and Purification—Syntheses of the peptides were carried out by solid-phase peptide synthesis using t-butyloxycarbonyl chemistry and MBHA (4-methylbenzhydrylamine) resin (0.97 mmol/g), followed by cleavage of the peptide from the resin as described previously (117-119). However, it is understood in the art that there are other suitable instruments and methods for automated or manual peptide synthesis that could be employed to produce the peptides described herein. Peptide purification was performed by reversed-phase high-performance liquid chromatography (RP-HPLC) on a Zorbax 300 SB-C8 column (250×9.4 mm I.D.; 6.5 μm particle size, 300 Å pore size; Agilent Technologies, Little Falls, Del.) with a linear AB gradient (0.1% acetonitrile/min) at a flow rate of 2 mL/min, where eluent A was 0.2% aqueous trifluoroacetic acid (TFA), pH 2, and eluent B was 0.2% TFA in acetonitrile, where the shallow 0.1% acetonitrile/min gradient started 12% below the acetonitrile concentration required to elute the peptide on injection of analytical sample using a gradient of 1% acetonitrile/min (113). The purity of the peptides was verified by analytical RP-HPLC as described below and further characterized by mass spectrometry and amino acid analysis. Crude and purified peptides were analyzed on an Agilent 1100 series liquid chromatograph. Runs were performed on a Zorbax 300 SB-C8 column (150×2.1 mm I.D.; 5 μm particle size, 300 Å pore size) from Agilent Technologies using a linear AB gradient (1% acetonitrile/min) and a flow rate of 0.25 mL/min, where eluent A was 0.2% aqueous TFA, pH 2, and eluent B was 0.2% TFA in acetonitrile.
Analytical RP-HPLC of Peptides—Peptides were analyzed on an Agilent 1100 series liquid chromatograph (Little Falls, Del.). Runs were performed on a Zorbax 300 SB-C8 column (150×2.1 mm I.D.; 5 μm particle size, 300 Å pore size) from Agilent Technologies using linear AB gradient (1% acetonitrile/min) and a flow rate of 0.25 ml/min, where solvent A was 0.05% aqueous TFA, pH 2 and solvent B was 0.05% TFA in acetonitrile. Temperature profiling analyses were performed in 3° C. increments, from 5° C. to 80° C.

`CC[C@H](C)[C@H](NC(=O)[C@H](C)NC(=O)[C@H](CCCCN)NC(=O)[C@H](CC(C)C)NC(=O)[C@H](C)NC(=O)[C@@H](NC(=O)[C@H](Cc1cnc[nH]1)NC(=O)[C@H](CC(C)C)NC(=O)[C@@H](NC(=O)[C@@H](NC(=O)[C@H](CCCCN)NC(=O)[C@H](CCCCN)NC(=O)[C@H](C)NC(=O)[C@H](CO)NC(=O)[C@H](CCCCN)NC(=O)[C@H](Cc1ccccc1)NC(=O)[C@@H](NC(=O)[C@H](CCCCN)NC(=O)[C@H](CC(C)C)NC(=O)[C@H](Cc1ccccc1)NC(=O)[C@H](CO)NC(=O)[C@H](CCCCN)NC(=O)[C@H](Cc1c[nH]c2ccccc12)NC(=O)[C@H](CCCCN)NC(C)=O)[C@@H](C)O)[C@@H](C)O)C(C)C)[C@@H](C)O)C(=O)N[C@@H](CO)C(=O)N[C@@H](CO)C(N)=O` [NKL] displayed an MIC in data set [1] of 3.1 µg/mL (≈ 1.04 µM). Besides, the “fold decrease in hemolytic activity relative to V681” value in data set [2] was > 32 fold. Besides, in data set [2] (human erythrocytes), the “minimal hemolytic concentration (MHC)” value is “undetectable level; also recorded: no detectable hemolytic activity”.

Regarding `CC[C@H](C)[C@H](NC(=O)[C@H](C)NC(=O)[C@H](CCCCN)NC(=O)[C@H](CC(C)C)NC(=O)[C@H](C)NC(=O)[C@@H](NC(=O)[C@H](Cc1c[nH]cn1)NC(=O)[C@H](CC(C)C)NC(=O)[C@@H](NC(=O)[C@@H](NC(=O)[C@H](CCCCN)NC(=O)[C@@H](C)NC(=O)[C@H](C)NC(=O)[C@H](CO)NC(=O)[C@H](CCCCN)NC(=O)[C@H](Cc1ccccc1)NC(=O)[C@@H](NC(=O)[C@H](CCCCN)NC(=O)[C@H](CC(C)C)NC(=O)[C@H](Cc1ccccc1)NC(=O)[C@H](CO)NC(=O)[C@H](CCCCN)NC(=O)[C@H](Cc1c[nH]c2ccccc12)NC(=O)[C@H](CCCCN)NC(C)=O)[C@@H](C)O)[C@@H](C)O)C(C)C)[C@@H](C)O)C(=O)N[C@@H](CO)C(=O)N[C@@H](CO)C(N)=O` [NAD] (HELM PEPTIDE1{[ac].K.W.K.S.F.L.K.T.F.K.S.A.[dA].K.T.V.L.H.T.A.L.K.A.I.S.S.[am]}$$$$V2.0), the “fold decrease in hemolytic activity relative to L-diastereomer” value in data set [2] is reported as 8 fold. For the same compound, the “minimal hemolytic concentration (MHC)” value in data set [2] (red cells of human, 12 h) was determined as 250 µg/mL.

As for `CC[C@H](C)[C@H](NC(=O)[C@H](C)NC(=O)[C@H](CCCCN)NC(=O)[C@H](CC(C)C)NC(=O)[C@H](C)NC(=O)[C@@H](NC(=O)[C@H](Cc1c[nH]cn1)NC(=O)[C@H](CC(C)C)NC(=O)[C@@H](NC(=O)[C@@H](NC(=O)[C@H](CCCCN)NC(=O)[C@@H](NC(=O)[C@H](C)NC(=O)[C@H](NC(=O)[C@H](CCCCN)NC(=O)[C@H](Cc1ccccc1)NC(=O)[C@@H](NC(=O)[C@H](CCCCN)NC(=O)[C@H](CC(C)C)NC(=O)[C@H](Cc1ccccc1)NC(=O)[C@H](CO)NC(=O)[C@H](CCCCN)NC(=O)[C@H](Cc1c[nH]c2ccccc12)NC(=O)[C@H](CCCCN)NC(C)=O)[C@@H](C)O)C(C)C)C(C)C)[C@@H](C)O)C(C)C)[C@@H](C)O)C(=O)N[C@@H](CO)C(=O)N[C@@H](CO)C(N)=O` [PVD] (HELM PEPTIDE1{[ac].K.W.K.S.F.L.K.T.F.K.[dV].A.V.K.T.V.L.H.T.A.L.K.A.I.S.S.[am]}$$$$V2.0), in data set [2], the “fold decrease in hemolytic activity relative to L-diastereomer” value is recorded as 16 fold. Besides, the “minimal hemolytic concentration (MHC)” value in data set [2] (red cells of human, 12 h) turned out to be 125 µg/mL.

As to Ac-KWKSFLKTFKSAAKTVLHTALKAISS-NH2 [NAL], the “minimal hemolytic concentration (MHC)” value in data set [2] (red cells of human, 12 h) is 31.2 µg/mL.

Turning to Ac-KWKSFLKTFKVAVKTVLHTALKAISS-NH2 [PVL], the “minimal hemolytic concentration (MHC)” value in data set [2] (red cells of human, 12 h) was found to be 7.8 µg/mL.

For `CC[C@H](C)[C@H](NC(=O)[C@H](C)NC(=O)[C@H](CCCCN)NC(=O)[C@H](CC(C)C)NC(=O)[C@H](C)NC(=O)[C@@H](NC(=O)[C@H](Cc1c[nH]cn1)NC(=O)[C@H](CC(C)C)NC(=O)[C@@H](NC(=O)[C@@H](NC(=O)[C@H](CCCCN)NC(=O)[C@@H](NC(=O)[C@H](C)NC(=O)[C@@H](CO)NC(=O)[C@H](CCCCN)NC(=O)[C@H](Cc1ccccc1)NC(=O)[C@@H](NC(=O)[C@H](CCCCN)NC(=O)[C@H](CC(C)C)NC(=O)[C@H](Cc1ccccc1)NC(=O)[C@H](CO)NC(=O)[C@H](CCCCN)NC(=O)[C@H](Cc1c[nH]c2ccccc12)NC(=O)[C@H](CCCCN)NC(C)=O)[C@@H](C)O)C(C)C)[C@@H](C)O)C(C)C)[C@@H](C)O)C(=O)N[C@@H](CO)C(=O)N[C@@H](CO)C(N)=O` [PSD] (HELM PEPTIDE1{[ac].K.W.K.S.F.L.K.T.F.K.[dS].A.V.K.T.V.L.H.T.A.L.K.A.I.S.S.[am]}$$$$V2.0; N-terminus and C-terminus assumed), the “improvement in antimicrobial activity compared to V681” value in data set [3] was determined as 2.7 fold.

As to “NSL: V681 analog, L-Ser at position 13 (non-polar face) (KWKSFLKTFKSASKTVLHTALKAISS)”, the “change in hydrophobicity (RP-HPLC retention) relative to NVL” value in data set [4] (non-polar face substitution) was -8.21 min.

“PKD: V681 analog, D-Lys at position 11 (KWKSFLKTFK[dK]AVKTVLHTALKAISS-NH2)”: the “improvement on the average MIC value compared to V681” value in data set [1] (geometric mean of 6 gram-negative strains) came out at 3.4 fold.

As to Ac-KWKSFLKTFKSALKTVLHTALKAISS-NH2 [NLL], the minimum inhibitory concentration (MIC) in data set [1] came out at 12.7 µg/mL. Also, the “minimal hemolytic concentration (MHC)” value in data set [2] (red cells of human, 12 h) was found to be 7.8 µg/mL.

As for “PKL: V681 analog, L-Lys at position 11 (polar face) (KWKSFLKTFKKAVKTVLHTALKAISS)”, the “change in hydrophobicity (RP-HPLC retention) relative to PVL” value in data set [4] is -2.29 min.

Take “PAL: V681 analog, L-Ala at position 11 (polar face) (KWKSFLKTFKAAVKTVLHTALKAISS)”: the “change in hydrophobicity (RP-HPLC retention) relative to PVL” value in data set [4] is “+0.45 min”.
